Laboratory results from patent US4428942A, “Analogs of somatostatin” (The Salk Institute for Biological Studies, priority 1982, dated 1984).
Like-named read-outs stand apart in the source and are kept apart here. Bridge positions count the residues as written; N and C are the ends. Square brackets hold non-standard residues; d marks the D form. Peptide text beside a SMILES is read from it.

How the values were obtained:
secretion of glucagon = tested on: secretion of glucagon; set-up: species or system rats; settings: in vivo
Procedure: (§1) In vivo experiments are carried out with the analogs, using the procedure described in Brown et al., Metabolism (1976) Vol. 25, pp. 1501-1503, to determine the potency, relative to somatostatin-14, to inhibit the secretion of glucagon and insulin stimulated by the administration of arginine to groups of six rats.

secretion of insulin = settings: in vivo
Procedure: as §1

isolated rabbit ileum = tested on: isolated rabbit ileum
Procedure: The analogs are tested in vitro in isolated rabbit ileum using the modified Ussing chamber technique, as described in Amer. J. of Physiol., 225:776-780 (1973). Unidirectional chloride fluxes are determined and used to characterize bi-directional fluxes following the addition of an SS-analog. Changes are measured with varying concentrations, and the potency to inhibit ion transport is quantitated and expressed as a percentage of the potency of SS-14.

[1] = tested on: release of growth hormone induced by isobutyl methyl xanthine in pituitary cells; format: cell-based, rat
Procedure: To determine the effectiveness of the peptides to inhibit the release of growth hormone, in vitro radioimmunoassays are carried out using the SS analogs in side-by-side comparison with equimolar concentrations of somatostatin-14 having a known effectiveness to inhibit the release of growth hormone induced by the application of isobutyl methyl xanthine to pituitary cells. Cultures are used which include cells of rat pituitary glands removed some four to five days previously in a system that minimizes enzymatic degradation, generally following the procedure set forth in Vale et al., Methods in Enzymology, Hormones and Cyclic Nucleotides (1975) Vol. 37, p. 82. Both cultures of a defined standard medium and cultures which are considered optimal for the secretion of growth hormone, as a result of having additions of either 2% or 10% of serum from a foetal calf, are used for the comparative testing.

[2] = cultured rat pituitary cells, isobutyl methyl xanthine-induced release, SS-14 = 100
[3] = arginine-stimulated, rats, SS-14 = 100
[4] = isolated rabbit ileum, Ussing chamber, chloride fluxes, SS-14 = 100

Molecule	Glucagon (potency to inhibit glucagon secretion relative to SS-14) (secretion of glucagon; rat)	Insulin (potency to inhibit insulin secretion relative to SS-14) (secretion of insulin; rat)	Ion Transport (potency to inhibit ion transport expressed as a percentage of the potency of SS-14) (isolated rabbit ileum)	GH (potency for the inhibition of GH release relative to SS-14) [1]	GH (potency for the inhibition of GH release relative to SS-14) [1, 2]	Insulin (potency to inhibit insulin secretion relative to SS-14) (secretion of insulin; [3])	Ion Transport (potency to inhibit ion transport expressed as a percentage of the potency of SS-14) (isolated rabbit ileum; [4])	Glucagon (potency to inhibit glucagon secretion relative to SS-14) (secretion of glucagon; [3])
C[C@H](N)C(=O)NCC(=O)N[C@H]1CSSC[C@@H](C(=O)O)NC(=O)[C@H](CO)NC(=O)[C@H]([C@@H](C)O)NC(=O)[C@H](CCCNC(=N)N)NC(=O)[C@H]([C@@H](C)O)NC(=O)[C@H](CCCCN)NC(=O)[C@H](Cc2c[nH]c3ccccc23)NC(=O)[C@H](Cc2ccccc2)NC(=O)[C@H](Cc2ccccc2)NC(=O)[C@H](CC(N)=O)NC(=O)[C@H](CCCCN)NC1=O [Peptide 2, [Arg^11]--SS] (H-AGCKNFFWKTRTSC-OH; disulfide 3-14)	< 1%	142%	291%					
C[C@@H](O)[C@@H]1NC(=O)[C@H](Cc2c[nH]c3ccccc23)NC(=O)[C@H]([C@@H](C)O)NC(=O)[C@H](CCCCN)NC(=O)[C@H](Cc2c[nH]c3ccccc23)NC(=O)[C@H](Cc2ccccc2)NC(=O)[C@H](Cc2ccccc2)NC(=O)[C@H](CC(N)=O)NC(=O)[C@H](CCCCN)NC(=O)[C@@H](N)CSSC[C@@H](C(=O)O)NC(=O)[C@H](CO)NC1=O [Peptide 3, des-AA^1,2,[Trp^11]--SS] (H-CKNFFWKTWTSC-OH; disulfide 1-12)			405%					
C[C@@H](O)[C@@H]1NC(=O)[C@H](CCCCN)NC(=O)[C@@H](Cc2c[nH]c3ccccc23)NC(=O)[C@H](Cc2ccccc2)NC(=O)[C@H](Cc2ccccc2)NC(=O)[C@@H](N)CSSC[C@@H](C(=O)O)NC(=O)[C@H](CO)NC(=O)[C@H](Cc2c[nH]c3ccccc23)NC1=O [Peptide 4, des-AA^1,2,4,5,12,[D-Trp^8,Trp^11]--SS] (H-CFF[dW]KTWSC-OH; disulfide 1-9)			37%					
C[C@H](N)C(=O)NCC(=O)N[C@H]1CSSC[C@@H](C(=O)O)NC(=O)[C@H](CO)NC(=O)[C@H]([C@@H](C)O)NC(=O)[C@H](C)NC(=O)[C@H]([C@@H](C)O)NC(=O)[C@H](CCCCN)NC(=O)[C@H](Cc2c[nH]c3ccccc23)NC(=O)[C@H](Cc2ccccc2)NC(=O)[C@H](Cc2ccccc2)NC(=O)[C@H](CC(N)=O)NC(=O)[C@H](CCCCN)NC1=O [Peptide 5, [Ala^11]--SS] (H-AGCKNFFWKTATSC-OH; disulfide 3-14)		< 10%	52%	3%				
C[C@@H](O)[C@@H]1NC(=O)[C@H](CCCCN)NC(=O)[C@@H](Cc2c[nH]c3ccccc23)NC(=O)[C@H](Cc2ccccc2)NC(=O)[C@H](Cc2ccccc2)NC(=O)[C@@H](N)CSSC[C@@H](C(=O)O)NC(=O)[C@H](CO)NC(=O)[C@H](Cc2ccccc2)NC1=O [Peptide 6, des-AA^1,2,4,5,12,[D-Trp^8]--SS] (H-CFF[dW]KTFSC-OH; disulfide 1-9)	20%	70%	257%	45%				
C[C@H](N)C(=O)NCC(=O)N[C@H]1CSSC[C@@H](C(=O)O)NC(=O)[C@H](CO)NC(=O)[C@H](Cc2ccccc2)NC(=O)[C@H]([C@@H](C)O)NC(=O)[C@H](CCCCN)NC(=O)[C@H](Cc2c[nH]c3ccccc23)NC(=O)[C@H](Cc2ccccc2)NC(=O)[C@H](Cc2ccccc2)NC(=O)[C@H](CC(N)=O)NC(=O)[C@H](CCCCN)NC1=O [Peptide 7, des-Thr^12 --SS] (H-AGCKNFFWKTFSC-OH; disulfide 3-13)	< 1%	< 1%	21%	2%				
C[C@H](N)C(=O)NCC(=O)N[C@H]1CSSC[C@@H](C(=O)O)NC(=O)[C@H](CO)NC(=O)[C@H]([C@@H](C)O)NC(=O)[C@H]([C@@H](C)O)NC(=O)[C@H](CCCCN)NC(=O)[C@H](Cc2c[nH]c3ccccc23)NC(=O)[C@H](Cc2ccccc2)NC(=O)[C@H](Cc2ccccc2)NC(=O)[C@H](CC(N)=O)NC(=O)[C@H](CCCCN)NC1=O [Peptide 8, des-Phe^11 --SS] (H-AGCKNFFWKTTSC-OH; disulfide 3-13)	< 1%	< 1%	34%	2%				
C[C@@H](O)[C@@H]1NC(=O)[C@H](Cc2ccccc2)NC(=O)[C@H]([C@@H](C)O)NC(=O)[C@H](CCCCN)NC(=O)[C@H](Cc2c[nH]c3ccccc23)NC(=O)[C@H](Cc2ccccc2)NC(=O)[C@H](Cc2ccccc2)NC(=O)[C@H](CC(N)=O)NC(=O)[C@H](CCCCN)NC(=O)[C@@H](N)CSSC[C@@H](C(=O)O)NC(=O)[C@H](CO)NC1=O [Peptide 9, des-Ala^1,Gly^2 --SS] (H-CKNFFWKTFTSC-OH; disulfide 1-12)					60%	61%	231%	
C[C@H](N)C(=O)NCC(=O)N[C@H]1CSSC[C@@H](C(=O)O)NC(=O)[C@H](CO)NC(=O)[C@H]([C@@H](C)O)NC(=O)[C@H](Cc2c[nH]cn2)NC(=O)[C@H]([C@@H](C)O)NC(=O)[C@H](CCCCN)NC(=O)[C@H](Cc2c[nH]c3ccccc23)NC(=O)[C@H](Cc2ccccc2)NC(=O)[C@H](Cc2ccccc2)NC(=O)[C@H](CC(N)=O)NC(=O)[C@H](CCCCN)NC1=O [Peptide 10, [His^11]--SS] (H-AGCKNFFWKTHTSC-OH; disulfide 3-14)	< 1%	< 1%	48%					
C[C@H](N)C(=O)NCC(=O)N[C@H]1CSSC[C@@H](C(=O)O)NC(=O)[C@H](CO)NC(=O)[C@H]([C@@H](C)O)NC(=O)[C@H](CCC(=O)O)NC(=O)[C@H]([C@@H](C)O)NC(=O)[C@H](CCCCN)NC(=O)[C@H](Cc2c[nH]c3ccccc23)NC(=O)[C@H](Cc2ccccc2)NC(=O)[C@H](Cc2ccccc2)NC(=O)[C@H](CC(N)=O)NC(=O)[C@H](CCCCN)NC1=O [Peptide 12, [Glu^11]--SS] (H-AGCKNFFWKTETSC-OH; disulfide 3-14)	< 1%	< 1%	9%					
C[C@H](N)C(=O)NCC(=O)N[C@H]1CSSC[C@@H](C(=O)O)NC(=O)[C@H](CO)NC(=O)[C@H]([C@@H](C)O)NC(=O)[C@H](Cc2ccccc2)NC(=O)[C@H]([C@@H](C)O)NC(=O)[C@H](CCCCN)NC(=O)[C@H](Cc2c[nH]c3ccccc23)NC(=O)[C@H](Cc2ccccc2)NC(=O)[C@H](Cc2ccccc2)NC(=O)[C@H](CCCCN)NC1=O [Peptide 13, des-Asn^5 --SS] (H-AGCKFFWKTFTSC-OH; disulfide 3-13)					4%	10%	11%	< 1%
C[C@H](N)C(=O)NCC(=O)N[C@H]1CSSC[C@@H](C(=O)O)NC(=O)[C@H]([C@@H](C)O)NC(=O)[C@H](Cc2ccccc2)NC(=O)[C@H]([C@@H](C)O)NC(=O)[C@H](CCCCN)NC(=O)[C@H](Cc2c[nH]c3ccccc23)NC(=O)[C@H](Cc2ccccc2)NC(=O)[C@H](Cc2ccccc2)NC(=O)[C@H](CC(N)=O)NC(=O)[C@H](CCCCN)NC1=O [Peptide 14, des-Ser^13 --SS] (H-AGCKNFFWKTFTC-OH; disulfide 3-13)	< 1%	< 1%	9%	2%				
C[C@H](N)C(=O)NCC(=O)N[C@H]1CSSC[C@@H](C(=O)O)NC(=O)[C@H](CO)NC(=O)[C@H]([C@@H](C)O)NC(=O)[C@H](Cc2ccccc2)NC(=O)[C@H]([C@@H](C)O)NC(=O)[C@H](CCCCN)NC(=O)[C@H](Cc2c[nH]c3ccccc23)NC(=O)[C@H](Cc2ccccc2)NC(=O)[C@H](Cc2ccccc2)NC(=O)[C@H](CC(N)=O)NC(=O)[C@@H](CCCCN)NC1=O [Peptide 15, [D-Lys^4]--SS]					22%	1%	139%	1%
des-AA^1,2,[β-Nal^11 ]--SS [Peptide 11]							107%	
